The record followed here is US11753407B2, “Compounds for treating spinal muscular atrophy” (PTC Therapeutics, Inc., priority 2012, dated 2023).

Bounds are passed on as bounds.

Data set [1] relates to Smn protein in SMA patient fibroblast cells (GM03813). As to the kind of experiment: Smn protein assay in cultured cells (SMN HTRF). It is filed as cell-based, human. Conditions: SMA patient fibroblast cells, 48 hours; for EC1.5x for Smn protein expression: 7-point concentration curve, SMN HTRF, concentration producing 1.5 times Smn protein vs DMSO vehicle control; for maximum fold (Fold) increase of Smn protein: 7-point concentration data, fold relative to vehicle control. In outline: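 Cells were cultured 72 h, seeded at 5,000/well and dosed with seven concentrations (3.16-fold apart) for 48 h. HTRF on lysates, read at 665 and 620 nm, gave blank-corrected ΔF values relative to DMSO. Potency is reported as EC1.5×, efficacy as maximal fold Smn increase.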

Data set [2] relates to SMN2 minigene mRNA (SMN2-A minigene) in HEK293H cells. As to the kind of experiment: SMN2 minigene mRNA splicing RT-qPCR assay in cultured cells. The format is cell-based, human. Conditions: Homo sapiens, HEK293-H; concentration increasing full length SMN2 mRNA 1.5-fold relative to vehicle-treated cells; HEK293H cells with SMN2-A minigene, 24 hours, 7-point concentration data; read-out: EC1.5x for production of full length SMN2 mRNA. In outline:
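EC1.5× values derive from a 24 h treatment of SMN2-A minigene HEK293H cells and GAPDH-normalized RT-qPCR of exon 7-included minigene mRNA relative to vehicle-treated cells.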

Broadly, the melting point is the temperature, or range, at which the solid turns liquid.

In turn, `COc1ccc(-c2cc(=O)n3cc(C4=CCNCC4)ccc3n2)cc1F` [Compound 186, 2-(3-fluoro-4-methoxyphenyl)-7-(1,2,3,6-tetrahydropyridin-4-yl)-4H-pyrido[1,2-a]pyrimidin-4-one] yielded a melting point of 182 to 184 °C. In data set [1], the “EC1.5x for Smn protein expression” value is “*** (an EC1.5× between >0.3 μM and ≤1 μM is indicated by three stars (***))”; the “maximum fold (Fold) increase of Smn protein” value (from here on “maximum fold (Fold) increase”) is “**** (a fold increase between >1.5 and ≤1.65 is indicated by four stars (****))”. The EC (1.5-fold increase) in data set [2] is under 0.1 µM.

For the molecule `CCc1cn2cc(-c3cc(=O)n4cc(N5CCNCC5)ccc4n3)ccc2n1` [Compound 124, 2-(2-ethylimidazo[1,2-a]pyridin-6-yl)-7-(piperazin-1-yl)-4H-pyrido[1,2-a]pyrimidin-4-one], the melting point lay in the range of 228 to 232 °C. Besides, in data set [1], the “maximum fold (Fold) increase” value was “** (a fold increase between >1.2 and ≤1.35 is indicated by two stars (**))”. Besides, the EC (1.5-fold increase) in data set [2] lay within 0.3 to 1 µM.

Molecule `Cc1cn2cc(-c3cc(=O)n4cc(N5CCN(C)[C@@H](C)C5)ccc4n3)cc(F)c2n1` [Compound 295, 7-[(3S)-3,4-dimethylpiperazin-1-yl]-2-(8-fluoro-2-methylimidazo[1,2-a]pyridin-6-yl)-4H-pyrido[1,2-a]pyrimidin-4-one] gave a melting point of 269 to 275 °C. In data set [1], the “EC1.5x for Smn protein expression” value is reported as “**** (an EC1.5x≤0.3 μM is indicated by four stars (****))”; the “maximum fold (Fold) increase” value was “**** (a fold increase between >1.5 and ≤1.65 is indicated by four stars (****))”. Moreover, the EC (1.5-fold increase) in data set [2] is under 0.1 µM.

Molecule `COc1ccc(-c2cc(=O)n3cc(N4CCC(N)CC4)ccc3n2)cc1F` [Compound 207, 7-(4-aminopiperidin-1-yl)-2-(3-fluoro-4-methoxyphenyl)-4H-pyrido[1,2-a]pyrimidin-4-one] gave a melting point of 173 to 179 °C. Besides, in data set [1], the “maximum fold (Fold) increase” value was “*** (a fold increase between >1.35 and ≤1.5 is indicated by three stars (***))”. For the same molecule, the EC (1.5-fold increase) in data set [2] is under 0.1 µM.

As for `CCN(CC)C1CN(c2ccc3nc(-c4cc5c(C)nc(C)cn5n4)cc(=O)n3c2)C1` [Compound 758, 7-[3-(diethylamino)azetidin-1-yl]-2-(4,6-dimethylpyrazolo[1,5-a]pyrazin-2-yl)-4H-pyrido[1,2-a]pyrimidin-4-one], the melting point lay within 231 to 233 °C. Also, the “maximum fold (Fold) increase” value in data set [1] is “*** (a fold increase between >1.35 and ≤1.5 is indicated by three stars (***))”. In data set [2], the EC (1.5-fold increase) lay within 0.3 to 1 µM.

On to `Cc1cn2nc(-c3cc(=O)n4cc(C5CCN(CCF)CC5)ccc4n3)cc2c(C)n1` [Cpd 662, 2-(4,6-dimethylpyrazolo[1,5-a]pyrazin-2-yl)-7-[1-(2-fluoroethyl)piperidin-4-yl]-4H-pyrido[1,2-a]pyrimidin-4-one], for which the melting point lay within 197 to 199 °C. For the same molecule, in data set [1], the “EC1.5x for Smn protein expression” value was “**** (an EC1.5x≤0.3 μM is indicated by four stars (****))” and the “maximum fold (Fold) increase” value is on record as “***** (a fold increase >1.65 is indicated by five stars (*****))”. Besides, the EC (1.5-fold increase) in data set [2] is under 0.1 µM.

The molecule `COc1ccc(-c2cc(=O)n3cc(-c4ccnc(C)c4)ccc3n2)cc1OC` [Compound 122, 2-(3,4-dimethoxyphenyl)-7-(2-methylpyridin-4-yl)-4H-pyrido[1,2-a]pyrimidin-4-one] registered a melting point of 197 to 200 °C. Besides, the “maximum fold (Fold) increase” value in data set [1] was “*** (a fold increase between >1.35 and ≤1.5 is indicated by three stars (***))”. Also, the EC (1.5-fold increase) in data set [2] fell in the range of 1 to 3 µM.

`CCc1nc(C)cn2nc(-c3cc(=O)n4cc(C5CCN(C6CCC6)CC5)cc(C)c4n3)cc12` [Compound 792, 7-(1-cyclobutylpiperidin-4-yl)-2-(4-ethyl-6-methylpyrazolo[1,5-a]pyrazin-2-yl)-9-methyl-4H-pyrido[1,2-a]pyrimidin-4-one] registered a melting point of 231 to 237 °C. Besides, in data set [1], the “EC1.5x for Smn protein expression” value is “*** (an EC1.5× between >0.3 μM and ≤1 μM is indicated by three stars (***))”; the “maximum fold (Fold) increase” value is listed as “***** (a fold increase >1.65 is indicated by five stars (*****))”. In addition, in data set [2], the EC (1.5-fold increase) is under 0.1 µM.

As for `CNCCNc1ccc2nc(-c3ccc(OC)c(OC)c3)cc(=O)n2c1` [Compound 181, 2-(3,4-dimethoxyphenyl)-7-{[2-(methylamino)ethyl]amino}-4H-pyrido[1,2-a]pyrimidin-4-one], the melting point lay in the range of 135 to 138 °C. Further, in data set [1], the “maximum fold (Fold) increase” value is listed as “* (A maximum fold increase of ≤1.2 is indicated by one star (*))”. Moreover, the EC (1.5-fold increase) in data set [2] was in the range of 1 to 3 µM.

The molecule `Cc1cn2nc(-c3cc(=O)n4cc(N5CCC(NC(C)C)CC5)cc(C)c4n3)cc2c(C)n1` [Compound 611, 2-(4,6-dimethylpyrazolo[1,5-a]pyrazin-2-yl)-9-methyl-7-[4-(propan-2-ylamino)piperidin-1-yl]-4H-pyrido[1,2-a]pyrimidin-4-one] had a melting point of 215 to 225 °C. In addition, in data set [1], the “maximum fold (Fold) increase” value was “*** (a fold increase between >1.35 and ≤1.5 is indicated by three stars (***))”. Also, the EC (1.5-fold increase) in data set [2] was 0.3 to 1 µM.

As to `N#Cc1cc(F)cc(-c2cc(=O)n3cc(N4CCNCC4)ccc3n2)c1` [Compound 231, 3-fluoro-5-[4-oxo-7-(piperazin-1-yl)-4H-pyrido[1,2-a]pyrimidin-2-yl]benzonitrile], the melting point lay in the range of 238 to 244 °C. In data set [1], the “EC1.5x for Smn protein expression” value was “** (an EC1.5× between >1 μM and ≤3 μM is indicated by two stars (**))”; the “maximum fold (Fold) increase” value is “**** (a fold increase between >1.5 and ≤1.65 is indicated by four stars (****))”. Besides, the EC (1.5-fold increase) in data set [2] lay within 0.3 to 1 µM.

In turn, `CCCc1nc(C)cn2nc(-c3cc(=O)n4cc(N5CCNCC5)ccc4n3)cc12` [Compound 723, 2-(6-methyl-4-propylpyrazolo[1,5-a]pyrazin-2-yl)-7-(piperazin-1-yl)-4H-pyrido[1,2-a]pyrimidin-4-one] had a melting point of 250 to 252 °C. Further, in data set [1], the “EC1.5x for Smn protein expression” value is “**** (an EC1.5x≤0.3 μM is indicated by four stars (****))” and the “maximum fold (Fold) increase” value was “***** (a fold increase >1.65 is indicated by five stars (*****))”. The EC (1.5-fold increase) in data set [2] was under 0.1 µM.

`COc1ccc(-c2ccc3nc(C4=CCN(C)CC4)cc(=O)n3c2)cc1OC` [Compound 377, 7-(3,4-dimethoxyphenyl)-2-(1-methyl-1,2,3,6-tetrahydropyridin-4-yl)-4H-pyrido[1,2-a]pyrimidin-4-one] returned a melting point of 149 to 152 °C. For the same molecule, in data set [1], the “EC1.5x for Smn protein expression” value is “** (an EC1.5× between >1 μM and ≤3 μM is indicated by two stars (**))”; the “maximum fold (Fold) increase” value is “**** (a fold increase between >1.5 and ≤1.65 is indicated by four stars (****))”. Also, in data set [2], the EC (1.5-fold increase) was 0.3 to 1 µM.

`Cc1cn2nc(-c3cc(=O)n4cc(N5CCN6CCC[C@@H]6C5)cc(C)c4n3)cc2c(C)n1` [Compound 458, 2-(4,6-dimethylpyrazolo[1,5-a]pyrazin-2-yl)-7-[(8aR)-hexahydropyrrolo[1,2-a]pyrazin-2(1H)-yl]-9-methyl-4H-pyrido[1,2-a]pyrimidin-4-one] showed a melting point of 244 to 256 °C. Also, in data set [1], the “EC1.5x for Smn protein expression” value was “*** (an EC1.5× between >0.3 μM and ≤1 μM is indicated by three stars (***))”; the “maximum fold (Fold) increase” value was “**** (a fold increase between >1.5 and ≤1.65 is indicated by four stars (****))”. The EC (1.5-fold increase) in data set [2] was under 0.1 µM.

`Cc1nc2c(F)cc(-c3cc(=O)n4cc(C5=CCN(C)CC5)ccc4n3)cc2o1` [Compound 300, 2-(4-fluoro-2-methyl-1,3-benzoxazol-6-yl)-7-(1-methyl-1,2,3,6-tetrahydropyridin-4-yl)-4H-pyrido[1,2-a]pyrimidin-4-one] showed a melting point of 178 to 181 °C. In addition, in data set [1], the “EC1.5x for Smn protein expression” value is recorded as “**** (an EC1.5x≤0.3 μM is indicated by four stars (****))” and the “maximum fold (Fold) increase” value was “***** (a fold increase >1.65 is indicated by five stars (*****))”. Further, in data set [2], the EC (1.5-fold increase) was under 0.1 µM.

Turning to `Cn1ncc2cc(-c3cc(=O)n4cc(C5=CCNCC5)ccc4n3)ccc21` [Cpd 443, 2-(1-methyl-1H-indazol-5-yl)-7-(1,2,3,6-tetrahydropyridin-4-yl)-4H-pyrido[1,2-a]pyrimidin-4-one], the melting point is 200 to 203 °C. Also, in data set [1], the “EC1.5x for Smn protein expression” value is on record as “**** (an EC1.5x≤0.3 μM is indicated by four stars (****))” and the “maximum fold (Fold) increase” value is given as “***** (a fold increase >1.65 is indicated by five stars (*****))”. For the same molecule, the EC (1.5-fold increase) in data set [2] was under 0.1 µM.

On to `COc1ccc(-c2cc(=O)n3cc(N4CC5CCC(C4)N5)ccc3n2)cc1OC` [Compound 66, 7-(3,8-diazabicyclo[3.2.1]oct-3-yl)-2-(3,4-dimethoxyphenyl)-4H-pyrido[1,2-a]pyrimidin-4-one], for which the melting point was in the range of 158 to 161 °C. Moreover, in data set [1], the “EC1.5x for Smn protein expression” value is “* (An EC1.5× for Smn protein expression between >3 μM and ≤10 μM is indicated by one star (*))”; the “maximum fold (Fold) increase” value was “*** (a fold increase between >1.35 and ≤1.5 is indicated by three stars (***))”. In addition, the EC (1.5-fold increase) in data set [2] lay in the range of 0.3 to 1 µM.
